Here are results for eleven compounds from ChEMBL document CHEMBL1201862, “PubChem BioAssay data set” (2004).

Test systems include NCI-H23; BT-549; Malme-3M; 786-0; HOP-92; IGROV-1; NCI-H522; SK-MEL-5; COLO 205; M14; A498; Hs-578T; OVCAR-3; SNB-75; TK-10; HCT-15; NCI-H460; SW-620; SK-OV-3.
Common to all, as to experiment: NCI anticancer screen, dose series, 48 h

Molecules are shown by their SMILES.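 Five compound concentrations were applied to cells in 96-well plates for 48 hours; endpoints were derived by simple linear interpolation of the resulting dose-response curve. At the GI50, growth is halved.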 Active and inactive are the calls of the source. No stated cut-off is given here; in the data, active = GI50 up to about 1.1 µM and inactive = higher.

Take `CCOC(=O)CCc1c(C)c2ccc(O)cc2oc1=O`: the GI50 in the assay on NCI-H23, in the assay on BT-549, in the assay with Malme-3M, with 786-0, with HOP-92 and in the assay on IGROV-1 was > 100 µM (inactive) each time. Also, the GI50 in the assay with NCI-H522, with SK-MEL-5, in the assay on COLO 205, in the assay on M14, in the assay on A498 and with Hs-578T was > 100 µM (inactive) each time. For the same compound, the GI50 in the assay on OVCAR-3 is > 100 µM (inactive); with SNB-75, > 100 µM (inactive); in the assay on TK-10 it was > 100 µM (inactive); with HCT-15, over 100 µM; in the assay on NCI-H460, > 100 µM (inactive); in the assay with SW-620 it was > 100 µM (inactive).

As for `CC(C)(C)OC(=O)NC1CCCCC1NC(=O)C(=O)NC1CCCCC1NC(=O)OC(C)(C)C` (centres undefined), the GI50 in the assay with NCI-H23 is > 100 µM (inactive); with BT-549 it was 53.5 µM (inactive); in the assay on Malme-3M, > 100 µM (inactive); in the assay with 786-0, 34.7 µM (inactive); in the assay on HOP-92 it was 13.5 µM (inactive); in the assay on IGROV-1 it was > 100 µM (inactive). In addition, the GI50 in the assay on NCI-H522 is 66.5 µM (inactive); with SK-MEL-5, > 100 µM (inactive); with SK-OV-3, 44.2 µM (inactive); with COLO 205, > 100 µM (inactive); in the assay with M14 it was > 100 µM (inactive); in the assay on A498 it was 32.7 µM (inactive). Besides, the GI50 in the assay with Hs-578T is 16.9 µM (inactive); in the assay on OVCAR-3, > 100 µM (inactive); in the assay with TK-10, 37.6 µM (inactive); with HCT-15 it was over 100 µM; in the assay with NCI-H460, > 100 µM (inactive); with SW-620 it was > 100 µM (inactive).

Take `COc1cccc(NC(=O)C(C#N)=C(SC)SC)c1`: the GI50 is > 100 µM (inactive) with BT-549; > 100 µM (inactive) in the assay with Malme-3M; > 100 µM (inactive) in the assay on 786-0; 46 µM (inactive) in the assay on HOP-92; > 100 µM (inactive) in the assay on IGROV-1; 30.4 µM (inactive) with NCI-H522. The GI50 in the assay on SK-MEL-5 is 41.8 µM (inactive); with SK-OV-3, > 100 µM (inactive); in the assay on COLO 205, > 100 µM (inactive); with M14, > 100 µM (inactive); with A498, > 100 µM (inactive); in the assay with Hs-578T it was > 100 µM (inactive). The GI50 with SNB-75 is > 100 µM (inactive); with TK-10, > 100 µM (inactive); in the assay on HCT-15, over 100 µM; in the assay with NCI-H460 it was > 100 µM (inactive); in the assay on SW-620 it was > 100 µM (inactive).

As for `NC12CC3CC4C1CC1CC2C(C3)C4(N)C1`, the GI50 with NCI-H23, in the assay with BT-549, in the assay with Malme-3M, in the assay with 786-0, in the assay with HOP-92 and with IGROV-1 was > 100 µM (inactive) each time. Besides, the GI50 with NCI-H522, in the assay with SK-MEL-5, in the assay on SK-OV-3, in the assay on COLO 205, in the assay with M14 and with A498 was > 100 µM (inactive) in each case. Moreover, the GI50 was > 100 µM (inactive) with Hs-578T; > 100 µM (inactive) with OVCAR-3; 50.7 µM (inactive) with TK-10; over 100 µM with HCT-15; > 100 µM (inactive) in the assay on NCI-H460; > 100 µM (inactive) in the assay on SW-620.

Take `COc1cc2c(cc1OC)C(c1ccccc1CCCCl)=NCC2`: the GI50 is 42.5 µM (inactive) in the assay on NCI-H23; 38.3 µM (inactive) with BT-549; > 100 µM (inactive) with 786-0; 39.1 µM (inactive) in the assay on HOP-92; 33.9 µM (inactive) with IGROV-1; 20.8 µM (inactive) with NCI-H522. For the same compound, the GI50 is 23.3 µM (inactive) with SK-MEL-5; > 100 µM (inactive) in the assay with SK-OV-3; 40 µM (inactive) with COLO 205; > 100 µM (inactive) in the assay with M14; > 100 µM (inactive) in the assay on A498; 69 µM (inactive) in the assay with Hs-578T. Also, the GI50 in the assay with OVCAR-3 was > 100 µM (inactive); in the assay with SNB-75, 75.3 µM (inactive); in the assay with TK-10, > 100 µM (inactive); in the assay on HCT-15, over 100 µM; with NCI-H460 it was 48.6 µM (inactive); in the assay on SW-620, 25.6 µM (inactive).

As for `Cc1ccc(-n2cnc3c(N/N=C4\SCC(=O)N4c4ccccc4)ncnc32)cc1`, the GI50 in the assay with NCI-H23 was 3.37 µM (inactive); with BT-549, 3.85 µM (inactive); with Malme-3M it was 4.39 µM (inactive); with 786-0, 3.15 µM (inactive); in the assay on HOP-92 it was 2.66 µM (inactive); in the assay on IGROV-1, 4 µM (inactive). Moreover, the GI50 in the assay with NCI-H522 was 3.52 µM (inactive); in the assay on SK-MEL-5 it was 3.9 µM (inactive); in the assay on SK-OV-3 it was 14.6 µM (inactive); in the assay on COLO 205 it was 4.98 µM (inactive); in the assay with M14, 3.66 µM (inactive); with A498 it was 14.2 µM (inactive). Further, the GI50 in the assay with Hs-578T is 3.85 µM (inactive); with OVCAR-3, 3.13 µM (inactive); with TK-10, 3.63 µM (inactive); with HCT-15, 2.3 µM; in the assay with NCI-H460, 2.9 µM (inactive); in the assay on SW-620, 4.01 µM (inactive).

`CSCCCNC(=O)c1csc(-c2csc(C(CNC(=O)OC(C)(C)C)CNC(=O)OC(C)(C)C)n2)n1`: the GI50 in the assay on NCI-H23 was 36 µM (inactive); in the assay with BT-549 it was 34.5 µM (inactive); in the assay on 786-0 it was 50.4 µM (inactive); in the assay with HOP-92 it was 43 µM (inactive); in the assay with IGROV-1, 33.3 µM (inactive); in the assay on NCI-H522, 18.6 µM (inactive). Besides, the GI50 was 26.1 µM (inactive) in the assay on SK-MEL-5; 60.3 µM (inactive) in the assay with SK-OV-3; 34 µM (inactive) in the assay on COLO 205; 47 µM (inactive) in the assay with M14; 55.2 µM (inactive) with A498; 45.8 µM (inactive) with Hs-578T. For the same compound, the GI50 was 60 µM (inactive) in the assay on OVCAR-3; 35 µM (inactive) in the assay on SNB-75; 66.1 µM (inactive) with TK-10; 43.4 µM in the assay on HCT-15; 14.5 µM (inactive) in the assay with NCI-H460; 58.3 µM (inactive) in the assay on SW-620.

With `O=C1Nc2ccccc2/C1=N/Nc1nc(-c2cccc([N+](=O)[O-])c2)cs1`, the GI50 with NCI-H23 was 36.4 µM (inactive); with BT-549 it was 36.3 µM (inactive); with 786-0, 16.3 µM (inactive); with HOP-92, 20.1 µM (inactive); in the assay with IGROV-1 it was 21.6 µM (inactive); with NCI-H522 it was 20.1 µM (inactive). Further, the GI50 is 20.2 µM (inactive) with SK-MEL-5; 29.9 µM (inactive) with SK-OV-3; 27.1 µM (inactive) in the assay on COLO 205; 34.1 µM (inactive) in the assay with M14; 21.8 µM (inactive) in the assay on A498; 20.1 µM (inactive) with Hs-578T. Moreover, the GI50 is 34.8 µM (inactive) in the assay on OVCAR-3; 20.3 µM (inactive) in the assay with SNB-75; 19 µM (inactive) with TK-10; 21.8 µM in the assay on HCT-15; 16.9 µM (inactive) in the assay with NCI-H460; 36.8 µM (inactive) in the assay with SW-620.

`CCC(=O)N(c1ccccc1)C(C)CN1CCC(O)(c2ccccc2)CC1` (centres undefined): the GI50 with NCI-H23, in the assay on BT-549, in the assay on Malme-3M, in the assay on 786-0, in the assay on HOP-92 and in the assay with IGROV-1 was > 100 µM (inactive) each time. The GI50 in the assay on NCI-H522, in the assay on SK-MEL-5, with SK-OV-3, with COLO 205, with M14 and in the assay on A498 was > 100 µM (inactive) in each case. The GI50 in the assay with Hs-578T was > 100 µM (inactive); in the assay on OVCAR-3, > 100 µM (inactive); in the assay on SNB-75 it was > 100 µM (inactive); in the assay with TK-10, > 100 µM (inactive); in the assay on HCT-15, over 100 µM.

For `O=[N+]([O-])c1ccc2c(c1)c(S(=O)(=O)O)cc1nonc12`, the GI50 in the assay with NCI-H23, in the assay with BT-549, in the assay on Malme-3M, in the assay with 786-0, in the assay with HOP-92 and in the assay with IGROV-1 was > 100 µM (inactive) in each case. For the same compound, the GI50 with NCI-H522, in the assay with SK-MEL-5, in the assay on SK-OV-3, in the assay on COLO 205, with M14 and in the assay with A498 was > 100 µM (inactive) throughout. Moreover, the GI50 in the assay on Hs-578T was > 100 µM (inactive); in the assay on OVCAR-3, > 100 µM (inactive); in the assay on TK-10, > 100 µM (inactive); in the assay with HCT-15, over 100 µM; in the assay with NCI-H460, > 100 µM (inactive); in the assay on SW-620, > 100 µM (inactive).

Consider `COc1cc2c(cc1OCCCN1CCN(C)CC1)N=C[C@@H]1CCCN1C2=O`, for which the GI50 with BT-549 is 1.77 µM (inactive); in the assay on Malme-3M it was 2.21 µM (inactive); in the assay on 786-0 it was 3.4 µM (inactive); in the assay with HOP-92 it was 0.75 µM (active); in the assay with NCI-H522 it was 0.179 µM (active); in the assay on SK-MEL-5, 2.04 µM (inactive). The GI50 in the assay with SK-OV-3 is 2.84 µM (inactive); in the assay with COLO 205, 1.02 µM (active); in the assay with M14, 1.86 µM (inactive); with A498, 2.34 µM (inactive); in the assay with Hs-578T it was 5.12 µM (inactive); in the assay with OVCAR-3, 2.06 µM (inactive). Moreover, the GI50 in the assay with TK-10 was 3.34 µM (inactive); in the assay on HCT-15 it was 2.25 µM; in the assay on NCI-H460, 2.82 µM (inactive); with SW-620 it was 1.41 µM (inactive).
